Experimental data taken from US20110237508A1, “Peptide Formulations and Uses Thereof” (RIJKSUNIVERSITEIT GRONINGEN, priority 2008, published 2011).

Key:
[1] = oral tablets, simulated tropical conditions; cited from earlier work
[2] = Oxytocin recovery by RP-HPLC after 4 weeks storage at 4 or 55° C.; assay type: physicochemical; conditions: pH 4.5, 4 weeks
Procedure: As shown herein below, the stabilizing effect of the combination of a buffer and at least one source of divalent metal ions at a concentration of at least 2 mM in an aqueous oxytocin formulation was determined by measuring the recovery of oxytocin (remaining oxytocin as % of initial amount), the amount of oxytocin-monomers (% of total remaining oxytocin) and/or the level of aggregation (aggregated oxytocin as % of total remaining oxytocin) upon prolonged storage at elevated (e.g. 55° C.) temperatures. These parameters can be assessed by using any method for analysis deemed suitable by a person skilled in the art. Examples of suitable methods for analysis include, but are not limited to, reversed-phase high-performance liquid chromatography (RP-HPLC) and high-performance size exclusion chromatography (HP-SEC). Thus, suitable concentrations of divalent metal ions to achieve the stabilizing effect at elevated temperatures can be determined by those skilled in the art. They may vary, e.g. depending on the composition of the formulation or its intended application. In one embodiment, a formulation comprises oxytocin or vasopressin and at least 2 mM, preferably at least 5, more preferably at least 10 mM divalent metal ions and a buffer. In another embodiment, a pH-buffered formulation comprises divalent metal ions in a concentration of up to 150 mM, preferably up to 100 mM, more preferably up to 50 mM. For example, a formulation comprises divalent metal ions in a concentration between 5 and 150 mM, preferably between 10 and 100 mM, more preferably between 10 and 50 mM. In one embodiment, between 2 and 150 mM divalent metal ions, preferably 5-100 mM, such as 10, 20, 25, 30, 40 or 50 mM, and a buffer are used to stabilize an aqueous peptide formulation. In another embodiment, a divalent metal ion concentration in the range from 20 to 100 mM is used, like 30-100 mM, 40-80 mM or 50-70 mM. Other suitable ranges include between 2 and 50 mM, between 30 and 60 mM and between 40 and 70 mM divalent metal ions. […]
Samples of each formulation were stored for 4 weeks at 4° C. (control) or 55° C. (test). Thereafter, all samples were stored under cooled conditions (2-8° C.) before analysis by RP-HPLC and HP-SEC. Effects on stability were determined by measuring the recovery of oxytocin and the percentage of oxytocin-monomers.
The thermal stability of oxytocin in the presence of combinations of a buffer and monovalent metal ions was investigated. Citrate buffer (CB), acetate buffer (AC) or aspartate buffer (AP) was used at a concentration of 10 mM. Monovalent metal ions Na^+ and K^+ were added in the form of their chloride salt (NaCl and KCl) and used in final concentrations of 10 and 20 mM. […] Samples of each formulation were stored for 4 weeks at 4° C. (control) or 55° C. (test). Thereafter, all samples were stored under cooled conditions (2-8° C.) before analysis by RP-HPLC and HP-SEC. Effects on stability were determined by measuring the recovery of oxytocin and the percentage of oxytocin-monomers.
(§1) Citrate buffer (CB) was used at concentrations of 5, 10 or 50 mM. Divalent metal ions (Ca^2+, Mg^2+ and Zn^2+) were added in the form of their chloride salt (CaCl2, MgCl2 and ZnCl2) and used in final concentrations of 0, 2, 5, 10 or 50 mM. […] Samples of each formulation were stored for 4 weeks at 4° C. (control) or 55° C. (test). Thereafter, all samples were stored under cooled conditions (2-8° C.) before analysis by RP-HPLC and HP-SEC. Effects on stability were determined by measuring the recovery of oxytocin and the percentage of oxytocin-monomers. The results are presented in FIGS. 4A and 4B (citrate buffer with Ca^2+), 5A and 5B (citrate buffer with Mg^2+) and 6A and 6B (citrate buffer with Zn^2+).
Divalent metal ions (Ca^2+, Mg^2+ and Zn^2+) were added in the form of their chloride salt (CaCl2, MgCl2 and ZnCl2) and used in final concentrations of 0, 2, 5, 10 or 50 mM. […] Samples of each formulation were stored for 4 weeks at 4° C. […]

[3] = Oxytocin monomer recovery by HP-SEC after 4 weeks storage at 4 or 55° C.; assay type: physicochemical; conditions: pH 4.5, 4 weeks
Procedure: As shown herein below, the stabilizing effect of the combination of a buffer and at least one source of divalent metal ions at a concentration of at least 2 mM in an aqueous oxytocin formulation was determined by measuring the recovery of oxytocin (remaining oxytocin as % of initial amount), the amount of oxytocin-monomers (% of total remaining oxytocin) and/or the level of aggregation (aggregated oxytocin as % of total remaining oxytocin) upon prolonged storage at elevated (e.g. 55° C.) temperatures. These parameters can be assessed by using any method for analysis deemed suitable by a person skilled in the art. Examples of suitable methods for analysis include, but are not limited to, reversed-phase high-performance liquid chromatography (RP-HPLC) and high-performance size exclusion chromatography (HP-SEC). Thus, suitable concentrations of divalent metal ions to achieve the stabilizing effect at elevated temperatures can be determined by those skilled in the art. They may vary, e.g. depending on the composition of the formulation or its intended application. In one embodiment, a formulation comprises oxytocin or vasopressin and at least 2 mM, preferably at least 5, more preferably at least 10 mM divalent metal ions and a buffer. In another embodiment, a pH-buffered formulation comprises divalent metal ions in a concentration of up to 150 mM, preferably up to 100 mM, more preferably up to 50 mM. For example, a formulation comprises divalent metal ions in a concentration between 5 and 150 mM, preferably between 10 and 100 mM, more preferably between 10 and 50 mM. In one embodiment, between 2 and 150 mM divalent metal ions, preferably 5-100 mM, such as 10, 20, 25, 30, 40 or 50 mM, and a buffer are used to stabilize an aqueous peptide formulation. In another embodiment, a divalent metal ion concentration in the range from 20 to 100 mM is used, like 30-100 mM, 40-80 mM or 50-70 mM. Other suitable ranges include between 2 and 50 mM, between 30 and 60 mM and between 40 and 70 mM divalent metal ions.
Divalent metal ions (Ca^2+, Mg^2+ and Zn^2+) were added as metal chloride salts (MC12) to a non-buffered formulation comprising oxytocin and pure water (W). The divalent metal ions were used at concentrations of 0, 2, 5, 10 and 50 mM. […] Effects on stability were determined by measuring the recovery of oxytocin and the percentage of oxytocin-monomers.
Samples of each formulation were stored for 4 weeks at 4° C. […] Effects on stability were determined by measuring the recovery of oxytocin and the percentage of oxytocin-monomers.
The thermal stability of oxytocin in the presence of combinations of a buffer and monovalent metal ions was investigated. […] Effects on stability were determined by measuring the recovery of oxytocin and the percentage of oxytocin-monomers. […]

[4] = Long-term stability study at 40° C., oxytocin monomers by HP-SEC; assay type: physicochemical; conditions: 10 mM citrate buffer and 50 mM Ca2+, pH 4.5, 6 months at 40° C.
Procedure: (§2) A long-term stability study was performed to assess the thermal stability of pH-buffered oxytocin formulations comprising divalent metal ions over prolonged periods. Citrate buffer (CB) was added in concentrations of 5, 10 or 50 mM to formulations comprising 0.1 mg/ml oxytocin and 0, 10 or 50 mM Ca^2+ (CaCl2). […] Samples of each formulation were stored for 1, 2, 3 or 6 months at 40° C. Thereafter, all samples were stored under cooled conditions (2-8° C.) before analysis by RP-HPLC and HP-SEC. Effects on stability were determined by measuring the recovery of oxytocin and the percentage of oxytocin-monomers.

[5] = Precipitation of oxytocin in citrate buffer with Ca2+; assay type: physicochemical; conditions: 100 mM Ca2+
Procedure: as §1, with “of” for “of 5, 10 or 50 mM. Divalent metal ions (Ca^2+, Mg^2+ and Zn^2+) were added in the form of their chloride salt (CaCl2, MgCl2 and ZnCl2) and used in final concentrations of 0, 2,”

[6] = Long-term stability study at 40° C., oxytocin recovery by RP-HPLC; assay type: physicochemical; conditions: 10 mM citrate buffer and 50 mM Ca2+, pH 4.5, 6 months at 40° C.
Procedure: as §2

[7] = cited from earlier work

For `C[C@@H](CO)NC(=O)[C@@H]1C=C2c3cccc4[nH]cc(c34)C[C@H]2N(C)C1` [ergometrine], the stability of tablets [1] is listed as “not stable”.
In the case of `CC[C@H](C)[C@@H]1NC(=O)[C@H](Cc2ccc(O)cc2)NC(=O)[C@@H](N)CSSC[C@@H](C(=O)N2CCC[C@H]2C(=O)N[C@@H](CC(C)C)C(=O)NCC(N)=O)NC(=O)[C@H](CC(N)=O)NC(=O)[C@H](CCC(N)=O)NC1=O` [oxytocin], the “original quantity of oxytocin recovered” value ([2]; 10 mM acetate buffer & 10 mM Na+) is reported as no more than 35%, the “remaining percentage of oxytocin” value ([2]; 10 mM acetate buffer with 50 mM Ca2+, 50 mM Mg2+ or 50 mM Zn2+) is reported as “Small increases” and the stabilizing effect ([2]; 10 mM aspartate buffer with Ca2+ or Mg2+) is reported as “only smaller effects”. The stabilizing effect ([2]; 10 mM aspartate buffer with Zn2+ (2-50 mM)) was “strong concentration-dependent stabilizing effect”, the oxytocin remained ([2]; 10 mM aspartate buffer with Zn2+) was “Up to 75%” and the “thermal stability of oxytocin” value ([2]; 10 mM citrate, acetate or aspartate buffer with 10 or 20 mM Na+ or K+) was “minor effects”. The oxytocin stability ([2]; 50 mM citrate buffer with Ca2+) was “only increased together with 50 mM Ca^2+”, the oxytocin stability ([2]; 50 mM citrate buffer with Mg2+) was “only increased at 50 mM Mg^2+” and the oxytocin stability ([2]; 50 mM citrate buffer with Zn2+) was “only increased at 50 mM Zn^2+”. The oxytocin stability ([2]; 5 or 10 mM citrate buffer and 50 mM Ca2+) was “Largest increases in stability”, the oxytocin stability ([2]; 5 or 10 mM citrate buffer and 50 mM Mg2+) was “largest increases in stability” and the oxytocin stability ([2]; citrate buffer with 2 or 5 mM Zn2+) was “large increases in stability”. For the same compound, the oxytocin stability ([2]; citrate, acetate or aspartate buffer, no divalent metal ions) was “small increase”, the stability of tablets [1] was “not stable” and the “remaining oxytocin in monomeric form” value ([3]; 10 mM acetate buffer & 10 mM Na+, 55° C.) was “around 30%”. For the same compound, the “percentage of oxytocin monomers” value ([3]; citrate buffer with Ca2+, 55° C.) was “up to 80%”, the “percentage of remaining oxytocin monomers” value ([3]; citrate buffer with Zn2+, 55° C.) was “up to 90%” and the remaining oxytocin-monomers ([3]; non-buffered pure water with divalent metal ions, 4 or 55° C.) was “loss of monomers was only prevented at 4 °C in the presence of Ca^2+ or Zn^2+”. For the same compound, the “portion remained in monomeric form” value [4] was “more than 80%”, the precipitation [5] was “precipitates were observed” and the “original amount of oxytocin preserved” value [6] was “around 70%”. The “effect on oxytocin stability” value ([7]; dissolved in commercially obtainable lactated Ringer's solution) was “no effect on oxytocin stability at all” and the stability of oxytocin ([7]; in Ringer's, room temperature, 0.08 IU/ml) was “already compromised after 30 days”.
For `CC[C@H](C)[C@@H]1NC(=O)[C@H](Cc2ccc(O)cc2)NC(=O)CCSSC[C@@H](C(=O)N2CCC[C@H]2C(=O)N[C@@H](CC(C)C)C(=O)NCC(N)=O)NC(=O)[C@H](CC(N)=O)NC(=O)[C@H](CCC(N)=O)NC1=O` [desamino-oxytocin], the stability of tablets [1] is listed as “not stable”.
